The values below come from patent publication US20260069584A1, “METHODS OF TREATING CHRONIC MYELOID LEUKEMIA USING THE TYROSINE KINASE INHIBITOR VODOBATINIB” (Sun Pharma Advanced Research Company Ltd., priority 2022, published 2026).

Series [1] addresses ABL1 kinase and its mutant forms. As to the kind of experiment: In-vitro ABL1 kinase inhibition. Format: biochemical.
A short description of series [2]: Single- and repeat-dose studies in preclinical models, oral route.

In general, AUC refers to the area under the concentration-time curve, a measure of exposure. A low value points to less exposure. In the case of `Cc1ccc(C(=O)NNC(=O)c2c(C)cccc2Cl)cc1C#Cc1cnc2ccccc2c1` [compound of Formula I, N′-(2-chloro-6-methylbenzoyl)-4-methyl-3-[2-(3-quinolyl)ethynyl]-benzohydrazide], the IC50 entry in series [1] is “nanomolar”. Also, the adverse events entry in series [2] (multiple efficacious doses) was “no specific adverse events”. In series [2] (oral route, daily dosing), the systemic exposure result is reported as “systemic bioavailability”. Also, the AUC in series [2] (plasma, oral) amounted to 13400 ng·h/mL.
